The test system of test [1] is mouse. As to the kind of experiment: Exploratory behaviour of the mouse in a two-compartment box (method of Crawley and Goodwin). In kind it is in vivo. More on the design: key: +: significant increase vs. control; -: significant decrease vs. control; ns: no significant change vs. control. The conditions noted are these: dose 0.1-10 mg/kg ip, change vs. control. The procedure:
(§1) The anxiolytic activity was determined by the method of Costall et al details of which are to be found in the pharmacology examples later in this specification. In brief, the method involves seeing whether the compound under test reduced the natural anxiety of mice in brightly-lit areas. Anxiolytic activity was also assessed by the method of Crawley and Goodwin (Pharm. Biochem. Behavior (1980), 13,167-170).
Compounds of the invention have been studied in the laboratory animal to evaluate their anxiolytic activity. As a typical compound of the invention, R(+)-4-Amino-N-(3-quinuclidinyl)-5-chloro-2-methoxy benzamide dihydrochloride (R(+)-4-Amino-N-(1-azabicyclo[2.2.2]oct-3-yl)-5-chloro-2-methoxybenzamide dihydrochloride), the compound of Example 14, was investigated for its anxiolytic activity, which was compared with that of the racemate (unresolved product of Example 2) and the corresponding enantiomer of absolute configuration S (product of Comparison Example 1).
The method used in this example was that described by Crawley and Goodwin (Pharm. Biochem. Behavior (1980) 13, 167-170), where aspects of behaviour of the mouse are compared in a lit zone and a dark zone of a two-compartment box.

In test [2] the test system is Naive male albino BKW mice. As to the kind of experiment: Anti-anxiety test (light/dark two-compartment box, method of Costall et al). Format: in vivo. The following applies: 40 min pretreatment, n = 5. The procedure: as §1
Naive male albino BKW mice, 25-30g, were used in all experiments. 10 mice were normally housed in each cage and given free access to food and water. The mice were kept on a 12h light and 12h dark cycle with lights off at 8.00am and on at 8.00pm.
The apparatus used for the detection of changes in anxiety consisted of an open topped box (45 x 27 x 27cm high) one third painted black and illuminated under a dim red light (1 x 60W) and partitioned from the remainder of the box which was painted white and brightly illuminated with a 100W light source located 17cm above the box. Access between these areas was enabled by means of a 7.5 x 7.5cm opening located at floor level in the centre of the partition. The floor area was lined into 9cm squares. The test was conducted between 13.00 and 18.00h in a quiet, darkened room illuminated with red light only. Animals were thus taken in a dark container from a dark holding room to the dark testing room.
Animals that had received drug or vehicle injections were placed individually into the centre of the white area and their behaviour observed over a 5 min period by remote video recording.
Animals were used in treatment groups of 5 and vehicle controls were run on each day of testing. Results were anlysed using Single-Factor Analysis of Variance followed by Dunnett's procedure for comparing all treatments with control.
Compounds of Example 14 and Comparison Example 1 were dissolved in minimum HCI made up to volume with distilled water. Doses were expressed as the base and were administered as a 40 min pretreatment in a volume of 1 mIi100g body weight. Administration was by the subcutaneous route.

Where [3] appears, read: Black Section, 0.1 mg/kg subcutaneous.
Setting [4] is: Black Section, 1.0 mg/kg subcutaneous.
The mark [5] stands for this setting: Black Section, 10.0 mg/kg subcutaneous.
[6] abbreviates: White Section, 0.1 mg/kg subcutaneous.
Setting [7] is: White Section, 1.0 mg/kg subcutaneous.
The mark [8] stands for this setting: White Section, 10.0 mg/kg subcutaneous.

Where a name gives a salt, the structure may show the parent alone.

Consider `COc1cc(N)c(Cl)cc1C(=O)NC1CN2CCC1CC2` (racemic) [Compound of Example 2], for which the Movement activity entry in test [1] (Dark zone) is “-”; in test [1] (Light zone), “+”. For the same compound, the Straightenings entry in test [1] (Dark zone) was “-”; in test [1] (Light zone), “+”.
As for `COc1cc(N)c(Cl)cc1C(=O)N[C@@H]1CN2CCC1CC2` [Comparison Example 1, S(-)-4-Amino-N-(3-quinuclidinyl)-5-chloro-2-methoxybenzamide hydrochloride], the Movement activity entry in test [1] (Dark zone) and in test [1] (Light zone) was “ns” throughout. The Straightenings entry in test [1] (Dark zone) and in test [1] (Light zone) was “ns” throughout. Moreover, the Crossings/5min in test [2] (setting [3]) is reported as 39.4±3.0; in test [2] (setting [4]), 37.6±3.8; in test [2] (setting [5]), 50.8±5.2; in test [2] (setting [6]), 23.2±2.3; in test [2] (setting [7]), 26.8±2.7; in test [2] (setting [8]) it was 24.7±2.1. Further, the Rearings/5 min in test [2] (setting [3]) is reported as 35.2±3.1; in test [2] (setting [4]) it was 38.1±3.2; in test [2] (setting [5]) it was 48.3±4.1; in test [2] (setting [6]) it was 23.0±2.1; in test [2] (setting [7]), 21.5±2.0; in test [2] (setting [8]), 24.0±1.9.
Take `COc1cc(N)c(Cl)cc1C(=O)N[C@H]1CN2CCC1CC2` [Example 14, R(+)-4-Amino-N-(3-quinuclidinyl)-5-chloro-2-methoxybenzamide hydrochloride]: the Movement activity entry in test [1] (Dark zone) is “-”; in test [1] (Light zone) it was “+”. Besides, the Straightenings entry in test [1] (Dark zone) is on record as “-”; in test [1] (Light zone), “+”. Also, the Crossings/5min in test [2] (setting [3]) is given as 14.6±1.5^+++; in test [2] (setting [4]), 13.6±1.2^+++; in test [2] (setting [5]), 17.6±1.4^+++; in test [2] (setting [6]), 52.9±5.0; in test [2] (setting [7]), 87.4±7.6; in test [2] (setting [8]) it was 73.7±7.2. In addition, the Rearings/5 min in test [2] (setting [3]) was 13.6±1.1^+++; in test [2] (setting [4]), 13.0±1.4^+++; in test [2] (setting [5]), 14.7±1.2^+++; in test [2] (setting [6]), 64.8±6.0; in test [2] (setting [7]), 82.4±7.4; in test [2] (setting [8]), 76.2±7.6.

The record behind these values is patent EP0311724A1, “Anxiolytic-R-N-(1-azabicyclo[2.2.2]oct-3-yl) benzamides and thiobenzamides” (SYNTHELABO, priority 1987, dated 1989).
